Assay: Aerodynamic particle size distribution by Andersen Cascade Impactor (ACI)
Type: physicochemical
Settings: flow rate 28.3 L/min, Samples I-V
Description: An Andersen Cascade Impactor (ACI) was used to determine the particle size distribution of Samples I-V. The test was conducted at a flow rate of 28.3 L/min. Deposition of the active substance on each ACI plate was determined by high performance liquid chromatography. The particle size was expressed in terms of mass median aerodynamic diameter (MMAD) and Geometric Standard Deviation (GSD).

CC(C)(C)NC[C@H](O)c1ccc(O)c(CO)c1.O=C(O)C(O)C(O)C(=O)O [Levalbuterol Tartrate, 4-[(1R)-2-(tert-butylamino)-1-hydroxyethyl]-2-(hydroxymethyl)phenol; (2R,3R)-2,3-dihydroxybutanedioic acid]
GSD: 1.7
MMAD: 4.4 μm

— patent US20210290568A1, “INHALABLE FORMULATION OF A SOLUTION CONTAINING LEVALBUTEROL TARTRATE” (priority 2020, published 2021)
